Reference: PMC3525482 (Journal of inorganic biochemistry, 2012)
Where two headings read alike, the source gives them in different places.

Assays:
Recombinant human FIH-1 = Recombinant human FIH-1 (Homo sapiens, UniProt Q9NWT6); experiment: FIH dose-response activity assay; format: biochemical
Recombinant human PHD2 = Recombinant human PHD2 (Homo sapiens, UniProt Q9GZT9); experiment: PHD2 dose-response activity assay; format: biochemical; conditions: sub-saturating αKG
FIH [1] = conditions: read-out: KM (Michaelis constant for αKG), FIH; cited from earlier work
FIH [2] = conditions: cited from earlier work

Recombinant human FIH-1, sequence (Q9NWT6 whole entry): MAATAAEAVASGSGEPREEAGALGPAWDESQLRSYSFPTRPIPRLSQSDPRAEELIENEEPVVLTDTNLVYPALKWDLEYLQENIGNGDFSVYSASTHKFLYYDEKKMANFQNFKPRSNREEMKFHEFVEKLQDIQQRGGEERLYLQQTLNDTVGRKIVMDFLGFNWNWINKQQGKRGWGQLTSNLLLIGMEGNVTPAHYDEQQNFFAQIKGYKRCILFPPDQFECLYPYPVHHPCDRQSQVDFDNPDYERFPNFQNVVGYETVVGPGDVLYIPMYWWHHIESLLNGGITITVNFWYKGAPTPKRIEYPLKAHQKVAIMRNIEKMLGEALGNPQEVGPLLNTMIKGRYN
Recombinant human PHD2, sequence (Q9GZT9 177-426): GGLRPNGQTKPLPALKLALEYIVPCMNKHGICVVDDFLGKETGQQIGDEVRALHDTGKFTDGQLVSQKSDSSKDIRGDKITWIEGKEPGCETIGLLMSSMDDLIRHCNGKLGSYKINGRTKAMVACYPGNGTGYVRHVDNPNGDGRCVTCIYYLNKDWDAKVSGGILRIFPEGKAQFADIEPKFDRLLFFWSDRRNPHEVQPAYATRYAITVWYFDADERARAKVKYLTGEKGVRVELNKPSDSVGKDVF

Molecule	IC50 (Recombinant human FIH-1)	other results
Cc1ccc(C#N)c(=O)[nH]1 [Compound 1, 3-Cyano-6-methyl-2(H) pyridinone]	–	inhibition toward FIH (Recombinant human FIH-1; dose response, sub-saturating αKG): no inhibition; IC50 (Recombinant human FIH-1; read-out: FIH IC50, 10 µM αKG, 0.5 µM FIH, 50 mM HEPES pH 7.50, 37.0 °C): > 1000 µM; inhibition toward PHD2 (Recombinant human PHD2): no inhibition
O=c1cc(CO)occ1O [Compound 4, 5-Hydroxy-2-hydroxymethyl-4-pyrone]	170 µM	–
Cc1occc(=O)c1O [Compound 6, 3-Hydroxy-2-methyl-4-pyrone]	70 µM	–
O=C(O)CCC(=O)C(=O)O [αKG, alpha-ketoglutarate]	–	Km (FIH [1]): 22 ± 6 µM
N-oxalyl-D-phenylalanine	–	Ki (FIH [2]): 90 µM

The next lines start with results.

IC50 (Recombinant human FIH-1)	Molecule	other results
75 µM	Oc1cccnc1O [Compound 3, 2,3-Dihydroxypyridine]	–
50 µM	O=C(O)c1cc(=O)c(O)co1 [Compound 5, 5-Hydroxy-4-oxo-4H-pyran-2-carboxylic acid]	–
30 µM	Cc1c(O)c(=O)ccn1C [Compound 7, 3-Hydroxy-1,2-dimethyl-4(1H)-pyridinone]	–
10 µM	O=[N+]([O-])c1ccc(O)c(O)c1 [Compound 8, 4-Nitrocatechol]	–
50 µM	Cc1ccc(O)c(O)c1 [Compound 9, 4-Methylcatechol]	–
120 µM	CC(C)(C)c1ccc(O)c(O)c1 [Compound 10, 4-tert-Butylcatechol]	–
